Target: T1, NPC1-like intracellular cholesterol transporter 1 (Homo sapiens, UniProt Q9UHC9)
T1 sequence (Q9UHC9 whole entry): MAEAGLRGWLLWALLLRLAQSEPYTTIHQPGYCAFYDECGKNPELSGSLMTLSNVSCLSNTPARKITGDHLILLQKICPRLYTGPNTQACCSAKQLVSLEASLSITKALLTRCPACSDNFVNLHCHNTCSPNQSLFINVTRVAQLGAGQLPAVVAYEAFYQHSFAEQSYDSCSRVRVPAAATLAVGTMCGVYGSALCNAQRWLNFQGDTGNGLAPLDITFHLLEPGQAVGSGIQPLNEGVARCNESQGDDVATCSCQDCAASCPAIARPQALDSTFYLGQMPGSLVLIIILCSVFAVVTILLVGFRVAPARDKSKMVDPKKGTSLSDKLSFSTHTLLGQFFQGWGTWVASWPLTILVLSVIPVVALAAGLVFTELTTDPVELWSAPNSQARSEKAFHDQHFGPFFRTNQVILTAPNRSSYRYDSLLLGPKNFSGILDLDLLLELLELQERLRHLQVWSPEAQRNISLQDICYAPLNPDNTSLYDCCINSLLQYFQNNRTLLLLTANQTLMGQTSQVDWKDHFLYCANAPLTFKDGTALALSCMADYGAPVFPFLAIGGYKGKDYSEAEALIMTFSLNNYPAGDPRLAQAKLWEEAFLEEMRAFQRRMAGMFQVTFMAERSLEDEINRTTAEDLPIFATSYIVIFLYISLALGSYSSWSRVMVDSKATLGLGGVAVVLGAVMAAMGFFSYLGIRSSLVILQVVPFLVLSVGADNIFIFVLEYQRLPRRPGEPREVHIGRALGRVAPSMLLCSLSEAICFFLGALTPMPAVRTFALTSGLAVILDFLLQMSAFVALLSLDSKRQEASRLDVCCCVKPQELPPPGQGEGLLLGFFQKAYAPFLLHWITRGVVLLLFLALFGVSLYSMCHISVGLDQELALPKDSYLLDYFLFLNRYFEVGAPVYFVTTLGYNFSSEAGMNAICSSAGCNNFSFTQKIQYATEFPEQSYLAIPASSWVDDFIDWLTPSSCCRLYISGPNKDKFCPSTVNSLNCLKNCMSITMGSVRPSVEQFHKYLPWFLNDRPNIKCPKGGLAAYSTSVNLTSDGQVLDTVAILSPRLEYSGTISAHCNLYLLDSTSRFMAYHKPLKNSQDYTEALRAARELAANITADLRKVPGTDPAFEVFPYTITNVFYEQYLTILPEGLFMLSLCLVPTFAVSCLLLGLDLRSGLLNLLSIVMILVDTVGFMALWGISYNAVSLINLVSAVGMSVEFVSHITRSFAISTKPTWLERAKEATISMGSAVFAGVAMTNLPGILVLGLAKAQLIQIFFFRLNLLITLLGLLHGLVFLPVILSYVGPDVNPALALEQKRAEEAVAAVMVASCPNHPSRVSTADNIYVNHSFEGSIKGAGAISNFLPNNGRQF
Test: Displacement of [35S](2S,3S,4S,5R,6S)-6-(4-((2S,3R)-3-((S)-3-(4-fluorophenyl)-3-hydroxypropyl)-1-(4-(3-(methylsulfonamido)prop-1-ynyl)phenyl)-4-oxoazetidin-2-yl)phenoxy)-3,4,5-trihydroxytetrahydro-2H-pyran-2-carboxylic acid from human recombinant NPC1L1 expressed in HEK293 cells
Format: cell-based

Row | SMILES | IC50 [µM]
1 | CC(C)CNC(=O)CN1CN(c2ccccc2)C2(CCN(C(=O)c3ccc(C(C)(C)C)cc3)CC2)C1=O | 4.4
2 | Cc1ccc(CCC2CCC(CNC(=O)c3cn[nH]c3)CN2C(=O)OCc2ccccc2)cc1 (stereo unspecified) | 81
3 | O=C(c1cccc2ccccc12)N1CC(C(=O)N2CCC3(C=Cc4ccccc43)CC2)CC(c2ccccc2)C1 (stereo unspecified) | 0.39
4 | CC1(C(=O)O)COc2ccc(CCN(CCCCC3CCCCC3)C(=O)Nc3ccc(SC(F)(F)F)cc3)cc2O1 (stereo unspecified) | 4.6
5 | Cn1c(N(Cc2ccc(OCCCC(=O)O)cc2)[C@H]2CC[C@H](C(C)(C)C)CC2)nc2cc(OC3CCCC3)ccc21 | 7.4
6 | CC(C)(C)c1ccc(C(=O)NS(=O)(=O)N2CC3(CCN(C(=O)OCCc4ccccc4)CC3)c3ccccc32)cc1 | 79
